Reference: US12600725B2 (Memorial Sloan-Kettering Cancer Center, priority 2013, dated 2026)

What was measured:
Hsp90β = Hsp90β (Homo sapiens, UniProt P08238)
Grp94 = Grp94 (Canis lupus familiaris, UniProt P41148); conditions: read-out: Grp94; FP competition, 6 nM Cy3B-GM, 10 nM protein, 4° C. for 24 h
Hsp90α = Hsp90α (Homo sapiens, UniProt P07900); assay: biochemical; conditions: FP competition, 6 nM Cy3B-GM, 10 nM protein, 4° C. for 24 h

Sequence of Grp94 (P41148 with tags, fused parts or gaps DELINS287-327GGGG): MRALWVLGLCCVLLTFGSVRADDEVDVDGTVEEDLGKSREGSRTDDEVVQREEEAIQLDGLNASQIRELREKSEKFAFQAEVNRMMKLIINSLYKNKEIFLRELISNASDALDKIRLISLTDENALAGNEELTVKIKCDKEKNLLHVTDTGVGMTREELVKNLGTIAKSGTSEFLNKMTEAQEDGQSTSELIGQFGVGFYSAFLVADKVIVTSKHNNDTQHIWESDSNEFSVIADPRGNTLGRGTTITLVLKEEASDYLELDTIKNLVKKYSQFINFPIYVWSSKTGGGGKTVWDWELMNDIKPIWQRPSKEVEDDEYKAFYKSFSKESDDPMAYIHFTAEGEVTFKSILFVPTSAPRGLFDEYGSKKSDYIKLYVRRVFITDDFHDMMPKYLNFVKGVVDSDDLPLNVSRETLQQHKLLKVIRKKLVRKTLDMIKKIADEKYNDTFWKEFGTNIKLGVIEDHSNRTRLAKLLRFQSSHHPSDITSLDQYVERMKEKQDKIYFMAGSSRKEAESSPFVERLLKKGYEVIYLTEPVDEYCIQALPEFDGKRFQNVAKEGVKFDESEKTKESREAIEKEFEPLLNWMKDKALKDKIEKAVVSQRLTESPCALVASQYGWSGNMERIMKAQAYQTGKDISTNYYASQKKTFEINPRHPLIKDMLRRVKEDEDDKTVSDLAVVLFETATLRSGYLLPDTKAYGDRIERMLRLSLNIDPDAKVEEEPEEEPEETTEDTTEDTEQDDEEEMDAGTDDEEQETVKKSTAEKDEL
Sequence of Hsp90β (P08238 whole entry): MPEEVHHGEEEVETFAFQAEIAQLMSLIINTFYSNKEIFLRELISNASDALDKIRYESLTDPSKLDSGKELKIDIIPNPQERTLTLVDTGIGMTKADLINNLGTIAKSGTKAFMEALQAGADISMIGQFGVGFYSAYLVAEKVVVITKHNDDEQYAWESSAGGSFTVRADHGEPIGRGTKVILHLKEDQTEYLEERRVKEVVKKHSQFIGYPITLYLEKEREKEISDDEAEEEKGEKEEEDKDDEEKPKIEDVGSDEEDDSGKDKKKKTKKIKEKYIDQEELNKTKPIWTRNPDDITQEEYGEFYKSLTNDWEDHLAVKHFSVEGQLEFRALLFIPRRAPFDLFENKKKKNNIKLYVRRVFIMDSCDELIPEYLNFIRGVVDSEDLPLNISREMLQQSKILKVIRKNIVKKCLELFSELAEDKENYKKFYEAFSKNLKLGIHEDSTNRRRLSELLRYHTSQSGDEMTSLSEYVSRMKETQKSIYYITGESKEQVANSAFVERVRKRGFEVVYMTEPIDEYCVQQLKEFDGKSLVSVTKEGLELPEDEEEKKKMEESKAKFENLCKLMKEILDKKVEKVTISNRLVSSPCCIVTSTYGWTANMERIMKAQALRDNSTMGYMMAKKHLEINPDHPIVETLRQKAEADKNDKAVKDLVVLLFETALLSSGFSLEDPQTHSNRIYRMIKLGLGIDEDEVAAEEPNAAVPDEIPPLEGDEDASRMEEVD

Compound | IC50 (Hsp90β) | IC50 (Grp94) | IC50 (Hsp90α)
C#CCCCn1c(Sc2ccccc2OC)nc2c(N)ncnc21 [PU-H5] | 110 ± 120 µM | 6.2 ± 2.5 µM | –
C#CCCCn1c(Sc2ccc(Cl)cc2)nc2c(N)ncnc21 [PU-H7] | – | 1.5 ± 0.2 µM | > 100 µM
Nc1ncnc2c1nc(Sc1ccc(Cl)cc1Cl)n2CCc1ccccc1Cl [HJP-V-97, 9-(2-Chlorophenethyl)-8-((2,4-dichlorophenyl)thio)-9H-purin-6-amine] | – | 2.2 µM | 186 µM
C#CCCCn1cnc(N)c2nc(Sc3cc(Cl)cc4c(Cl)ccnc34)nc1-2 [PDP-I-79-N3] | – | > 5 µM | > 50 µM
CC(C)NCCCn1c(Sc2cccc3ccccc23)nc2c(N)nccc21 [SO-IV-03, 1-(3-(isopropylamino)propyl)-2-(naphthalen-1-ylthio)-1H-imidazo[4,5-c]pyridin-4-amine] | – | > 5 µM | > 50 µM
C#CCCCn1c(Cc2ccc(Cl)cc2Cl)nc2c(N)ncnc21 [HJP-V-37, 8-(2,4-Dichlorobenzyl)-9-(pent-4-yn-1-yl)-9H-purin-6-amine] | – | 0.7 µM | > 10 µM
C#CCCCn1c(Sc2ccc(-n3cccc3)cc2)nc2c(N)ncnc21 [PDP-I-51-N9] | – | > 10 µM | > 50 µM
C#CCCCn1c(Cc2c(Cl)cccc2Cl)nc2c(N)ncnc21 [HJP-V-38, 8-(2,6-Dichlorobenzyl)-9-(pent-4-yn-1-yl)-9H-purin-6-amine] | – | 13.8 µM | 14.4 µM
Nc1ncnc2c1nc(Sc1ccc(Cl)cc1Cl)n2CCc1cccnc1 [HJP-V-116, 8-((2,4-Dichlorophenyl)thio)-9-(2-(pyridin-3-yl)ethyl)-9H-purin-6-amine] | – | 0.12 to 0.3 µM | > 50 µM
C#CCCn1cnc(N)c2nc(Sc3cc(Cl)cc(Cl)c3)nc1-2 [PDP-I-14-N3, 3-(But-3-yn-1-yl)-8-((3,5-dichlorophenyl)thio)-3H-purin-6-amine] | – | > 5 µM | > 50 µM
C#CCCCn1c(S(=O)(=O)c2ccc(Cl)cc2Cl)nc2c(N)ncnc21 [HJP-V-62T, 8-((2,4-Dichlorophenyl)sulfonyl)-9-(pent-4-yn-1-yl)-9H-purin-6-amine] | – | 4.7 µM | > 25 µM
C#CCCCn1c(Cc2c(C)cc(C)cc2C)nc2c(N)ncnc21 [HJP-V-36, 9-(Pent-4-yn-1-yl)-8-(2,4,6-trimethylbenzyl)-9H-purin-6-amine] | – | > 5 µM | > 10 µM
C#CCCCn1c(Sc2ccc(C#N)c(Cl)c2)nc2c(N)ncnc21 [HJP-III-33, 4-((6-Amino-9-(pent-4-yn-1-yl)-9H-purin-8-yl)thio)-2-chlorobenzonitrile] | – | 3.45 µM | 7.6 µM
C#CCCCn1cnc(N)c2nc(Sc3cccc4ccccc34)nc1-2 [PDP-I-16-N3] | – | > 5 µM | > 100 µM
Nc1ncnc2c1nc(Sc1ccc(Cl)cc1Cl)n2CCc1ccccc1C(F)(F)F [HJP-V-98, 8-((2,4-Dichlorophenyl)thio)-9-(2-(trifluoromethyl)phenethyl)-9H-purin-6-amine] | – | 0.71 µM | > 50 µM
Cc1ccc(Sc2nc3c(N)ncn(CCCNC(C)C)c-3n2)c(C)c1 [WS-11, 8-((2,4-Dimethylphenyl)thio)-3-(3-(isopropylamino)propyl)-3H-purin-6-amine] | – | 25 µM | > 100 µM
C#CCCCn1c(Cc2cc(Cl)ccc2Cl)nc2c(N)ncnc21 [HJP-V-54, 8-(2,5-Dichlorobenzyl)-9-(pent-4-yn-1-yl)-9H-purin-6-amine] | – | 0.75 µM | > 10 µM
Nc1ncnc2c1nc(Sc1ccc(Cl)cc1Cl)n2CCc1ccccc1F [HJP-V-96, 8-((2,4-Dichlorophenyl)thio)-9-(2-fluorophenethyl)-9H-purin-6-amine] | – | 1.9 µM | > 50 µM
C#CCCCn1c(C(=O)c2ccc(Cl)cc2Cl)nc2c(N)ncnc21 [HJP-V-37T, (6-Amino-9-(pent-4-yn-1-yl)-9H-purin-8-yl)(2,4-dichlorophenyl)methanone] | – | 0.13 to 0.17 µM | > 25 µM
C#CCCCn1cnc(N)c2nc(Sc3cn(Cc4ccc(OC)cc4)c4ncc(Br)cc34)nc1-2 [PDP-I-58-N3] | – | > 10 µM | > 50 µM
C#CCCCn1cnc(N)c2nc(Sc3ccc(Br)cc3CC)nc1-2 [PDP-I-54-N3] | – | > 10 µM | > 50 µM
C#CCCCn1c(Sc2ccc(C#N)c(Br)c2)nc2c(N)ncnc21 [HJP-III-32, 4-((6-Amino-9-(pent-4-yn-1-yl)-9H-purin-8-yl)thio)-2-bromobenzonitrile] | – | 4.28 µM | 14.3 µM

Now from value to molecule:

IC50 (Hsp90β) | IC50 (Grp94) | IC50 (Hsp90α) | Compound
– | 2.7 µM | > 25 µM | COc1ccc(-c2cc(Cl)cc(Sc3nc4c(N)ncnc4n3CCCNC(C)C)c2)cc1 [HJP-VI-3, 8-((5-chloro-4′-methoxy-[1,1′-biphenyl]-3-yl)thio)-9-(3-(isopropylamino)propyl)-9H-purin-6-amine]
– | 0.24 µM | > 50 µM | CC(C)NCCCn1c(Sc2cc(Cl)cc(/C=C/C3CC3)c2)nc2c(N)ncnc21 [HJP-VI-64, (E)-8-((3-chloro-5-(2-cyclopropylvinyl)phenyl)thio)-9-(3-(isopropylamino)propyl)-9H-purin-6-amine]
– | 2.43 µM | 8.56 µM | CC(C)NCCCn1c(Sc2cc(C(F)(F)F)cc(C(F)(F)F)c2)nc2c(N)ncnc21 [WS-14, 8-((3,5-Bis(trifluoromethyl)phenyl)thio)-9-(3-(isopropylamino)propyl)-9H-purin-6-amine]
– | 0.18 µM | > 50 µM | CC(C)NCCCn1c(Sc2cc(Cl)cc(C#CC3CC3)c2)nc2c(N)ncnc21 [HJP-VI-52, 8-((3-chloro-5-(cyclopropylethynyl)phenyl)thio)-9-(3-(isopropylamino)propyl)-9H-purin-6-amine]
– | 1.9 µM | 15.9 µM | CC(C)NCCCn1c(Sc2cc(Cl)cc(-c3cn[nH]c3)c2)nc2c(N)ncnc21 [HJP-VI-46, 8-((3-chloro-5-(1H-pyrazol-4-yl)phenyl)thio)-9-(3-(isopropylamino)propyl)-9H-purin-6-amine]
– | 0.16 µM | > 50 µM | CC(C)=C(C)c1cc(Cl)cc(Sc2nc3c(N)ncnc3n2CCCNC(C)C)c1 [HJP-VI-14, 8-((3-chloro-5-(3-methylbut-2-en-2-yl)phenyl)thio)-9-(3-(isopropylamino)propyl)-9H-purin-6-amine]
– | > 5 µM | 14.2 µM | CC(C)NCCCn1c(Sc2ccc(Cl)cc2[N+](=O)[O-])nc2c(N)ncnc21 [HJP-VI-32, 8-((4-chloro-2-nitrophenyl)thio)-9-(3-(isopropylamino)propyl)-9H-purin-6-amine]
– | 0.35 µM | > 50 µM | C[C@H](O)CNCCn1c(Sc2ccc(Cl)cc2Cl)nc2c(N)ncnc21 [HJP-V-105, 1(S)-1-((2-(6-Amino-8-((2,4-dichlorophenyl)thio)-9H-purin-9-yl)ethyl)amino)propan-2-ol]
– | 1.5 µM | > 50 µM | CC(C)NCCCn1c(Sc2ccc(Cl)cc2F)nc2c(N)ncnc21 [HJP-VI-23, 8-((4-chloro-2-fluorophenyl)thio)-9-(3-(isopropylamino)propyl)-9H-purin-6-amine]
– | 7.4 µM | > 50 µM | CC(O)C#Cc1cc(Cl)cc(Sc2nc3c(N)ncnc3n2CCCNC(C)C)c1 (stereo not shown) [HJP-VI-59, 4-(3-((6-amino-9-(3-(isopropylamino)propyl)-9H-purin-8-yl)thio)-5-chlorophenyl)but-3-yn-2-ol]
– | 0.26 µM | 13.8 µM | CC(C)NCCCn1c(Sc2cc(Cl)cc(-c3cccc(C(F)(F)F)c3)c2)nc2c(N)ncnc21 [HJP-VI-9, 8-((5-chloro-3′-(trifluoromethyl)-[1,1′-biphenyl]-3-yl)thio)-9-(3-(isopropylamino)propyl)-9H-purin-6-amine]
– | 0.89 µM | 39.9 µM | COC(C)CNCCn1c(Sc2cc(Cl)cc(Cl)c2)nc2c(N)ncnc21 (stereo not shown) [SO-III-75A, 8-((3,5-dichlorophenyl)thio)-9-(2-((2-methoxypropyl)amino)ethyl)-9H-purin-6-amine]
– | 0.26 µM | 47.5 µM | COc1cccc(-c2cc(Cl)cc(Sc3nc4c(N)ncnc4n3CCCNC(C)C)c2)c1 [HJP-VI-7, 8-((5-chloro-3′-methoxy-[1,1′-biphenyl]-3-yl)thio)-9-(3-(isopropylamino)propyl)-9H-purin-6-amine]
– | 0.86 µM | 72.5 µM | Nc1ncnc2c1nc(Sc1cc(Cl)cc(I)c1)n2CCc1cccnc1 [HJP-V-147, 8-((3-chloro-5-iodophenyl)thio)-9-(2-(pyridin-3-yl)ethyl)-9H-purin-6-amine]
– | 0.63 µM | > 50 µM | CC(C)NCCCn1c(Sc2cc(Cl)cc(C#CC(C)(C)C)c2)nc2c(N)ncnc21 [HJP-VI-53, 8-((3-chloro-5-(3,3-dimethylbut-1-yn-1-yl)phenyl)thio)-9-(3-(isopropylamino)propyl)-9H-purin-6-amine]
– | 1.5 µM | 55.8 µM | C[C@@H](O)CNCCn1c(Sc2ccc(Cl)cc2Cl)nc2c(N)ncnc21 [HJP-V-104, 1(R)-1-((2-(6-Amino-8-((2,4-dichlorophenyl)thio)-9H-purin-9-yl)ethyl)amino)propan-2-ol]
– | 2.59 µM | > 50 µM | CC(C)NCCCn1c(Sc2cc(Cl)cc(Cl)c2)nc2c(N)nccc21 [SO-III-154, 2-((3,5-dichlorophenyl)thio)-1-(3-(isopropylamino)propyl)-1H-imidazo[4,5-c]pyridin-4-amine]
– | 0.16 µM | 7.9 µM | CC(C)NCCCn1c(Sc2cc(Cl)cc(-c3cccs3)c2)nc2c(N)ncnc21 [HJP-VI-10, 8-((3-chloro-5-(thiophen-2-yl)phenyl)thio)-9-(3-(isopropylamino)propyl)-9H-purin-6-amine]
– | 0.58 µM | 47.3 µM | CC(C)NCCCn1c(Sc2cc(Cl)cc(-c3cccc([N+](=O)[O-])c3)c2)nc2c(N)ncnc21 [HJP-VI-8, 8-((5-chloro-3′-nitro-[1,1′-biphenyl]-3-yl)thio)-9-(3-(isopropylamino)propyl)-9H-purin-6-amine]
